Test results reported in PubChem BioAssay (NCI).
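These data come from cells grown in 96-well plates and exposed to compound for 48 hours at five concentrations. TGI: total growth inhibition.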 Where a SMILES comes first, the peptide text is derived from it. [ ]: non-standard residue; d: D form. The star is where a group is joined. Bn2Val = CC(C)[C@@H](C(=O)*)N(Cc1ccccc1)Cc1ccccc1; NH(3,4-diMeO-benzyl) = COc1ccc(CN*)cc1OC; NMeV = CN[C@H](C(=O)O)C(C)C

Columns and labels:
Assay in all cases: NCI-60 cell line screen, 48 h
MDA-MB-231 breast = tested on: MDA-MB-231 breast
LOX IMVI melanoma = tested on: LOX IMVI melanoma
HCT-116 colon = tested on: HCT-116 colon
NCI-H23 lung = tested on: NCI-H23 lung
HT29 colon = tested on: HT29 colon
UACC-257 melanoma = tested on: UACC-257 melanoma
MOLT-4 leukemia = tested on: MOLT-4 leukemia
HCC-2998 colon = tested on: HCC-2998 colon
786-0 renal = tested on: 786-0 renal
MDA-MB-435 = tested on: MDA-MB-435
DU-145 prostate = tested on: DU-145 prostate
SNB-19 CNS = tested on: SNB-19 CNS
K-562 leukemia = tested on: K-562 leukemia
EKVX NSCLC = tested on: EKVX NSCLC
OVCAR-3 ovarian = tested on: OVCAR-3 ovarian
SF-268 CNS = tested on: SF-268 CNS
PC-3 prostate = tested on: PC-3 prostate
SK-OV-3 ovarian = tested on: SK-OV-3 ovarian
KM12 colon = tested on: KM12 colon

| Compound | TGI (MDA-MB-231 breast) [µM] | TGI (LOX IMVI melanoma) [µM] | TGI (HCT-116 colon) [µM] | TGI (NCI-H23 lung) [µM] | TGI (HT29 colon) [µM] | TGI (UACC-257 melanoma) [µM] | TGI (MOLT-4 leukemia) [µM] | TGI (HCC-2998 colon) [µM] | TGI (786-0 renal) [µM] | TGI (MDA-MB-435) [µM] | TGI (DU-145 prostate) [µM] | TGI (SNB-19 CNS) [µM] | TGI (K-562 leukemia) [µM] | TGI (EKVX NSCLC) [µM] | TGI (OVCAR-3 ovarian) [µM] | TGI (SF-268 CNS) [µM] | TGI (PC-3 prostate) [µM] | TGI (SK-OV-3 ovarian) [µM] | TGI (KM12 colon) [µM] |
| --- | --- | --- | --- | --- | --- | --- | --- | --- | --- | --- | --- | --- | --- | --- | --- | --- | --- | --- | --- |
| Cn1c(=O)c2c(nc3n(C)c(=O)c4ccccc4n23)n(C)c1=O | > 100 | > 100 | > 100 | > 100 | > 100 | > 100 | 13.4 | > 100 | > 100 | > 100 | > 83.6 | > 100 | > 100 | > 100 | > 100 | > 100 | > 100 | > 100 | > 100 |
| Cc1ccc(/C=N/NS(=O)(=O)c2ccc(/C=C3\NC(=O)NC3=O)cc2)cc1 | > 100 | > 100 | > 100 | > 100 | > 100 | > 100 | > 100 | > 100 | > 100 | > 100 | > 100 | > 100 | > 100 | > 100 | > 100 | 57.7 | > 100 | > 100 | > 100 |
| O=Nc1c(NO)ccc2nn(-c3ccccc3)nc12 | > 100 | > 100 | 23.1 |  | > 100 | 11.7 | 74.5 | 85.5 | > 100 | 38.3 | > 100 | > 100 | > 100 | > 100 | > 100 | > 100 | > 100 | > 100 | > 100 |
| CC1C(O)Oc2cc3c(cc2C1c1ccccc1O)OCO3 (configuration not stated) | 65.4 | > 100 | 35.5 | > 100 | 66.6 | > 100 | 61.7 | > 100 | > 100 | > 100 | > 100 | > 100 | 46.5 | > 100 | 99 | > 100 | 65.7 | > 100 | > 100 |
| O=c1c(=[n+]2ccc(=C([O-])c3ccccc3)cc2)/c(=N/S(=O)(=O)c2ccccc2)c(=O)c2ccccc12 | 26.1 | 9.45 | 23.5 | 12 | 28 | 23.9 | 14.8 | 23.7 | 19.5 | 3.1 | 26.8 | 26.7 | 9.98 | 27 | 13.6 | 25.7 | 23.6 | 29.2 | 28.3 |
| N#CCc1nc(-c2cc3c(ccc4ccccc43)oc2=O)cs1 | 39 | > 100 | > 100 |  | > 100 | 75.7 | > 100 | > 100 | 51.6 | > 100 | > 100 | 36.4 | > 100 | > 100 |  | > 100 | > 100 | 77 | > 100 |
| O=C1COCCN1C(=O)c1ccccc1Cl | > 100 | > 100 | > 100 | > 100 | > 100 | > 100 |  | > 100 | > 100 | > 100 | > 100 | > 100 | > 100 | > 100 | > 100 | > 100 | > 100 |  | > 100 |
| Cc1cc(O)c2c(c1)CC(O)C1=C2C(=O)c2c(O)ccc(OC3CC(O)C(OC4CC(OC5CCC(O)C(C)O5)C(O)C(C)O4)C(C)O3)c2C1=O (configuration not stated) | 3.58 | 2.89 | 3.47 | 3.88 | 5.6 | 2.93 | 1.75 | 3.58 | 3.47 | 2.82 | 3.19 | 3.38 | 6.98 | 4.27 | 2.16 | 3.43 | 3.96 | 6.71 | 4.46 |
| Cc1nnc2n1N=C(c1cc(F)c(Cl)cc1Cl)/C(=C/c1ccc3c(c1)OCO3)S2 | > 100 | > 100 | > 100 | > 100 | > 100 | > 100 | > 100 | > 100 | > 100 | > 100 | > 100 | > 100 | > 100 | 84.3 | > 100 | > 100 | > 100 | > 100 | > 100 |
| CC1=C[C@@H]2[C@@H](CC(CO)=C[C@H]3[C@@H]4C(C)(C)[C@]4(OCC(C)C)[C@H](OCC(C)C)[C@@H](C)[C@]23O)C1=O | 3.39 | 3.06 | > 4.72 | 5.81 | 2.87 | 3.72 | 2.96 | 1.78 | > 6.54 | > 6.31 | > 8.32 | > 8.32 | > 4.86 | > 5.64 | 5.46 | > 8.32 | > 4.51 | > 8.32 | > 5.69 |
| c1cc(NC2=NCCO2)c2c(c1)OCO2 | > 100 | > 100 | > 100 | > 100 | > 100 | > 100 | > 100 | > 100 | > 100 | > 100 | > 100 | > 100 | > 100 | > 100 | > 100 | > 100 | > 100 | > 100 | > 100 |
| CC1=C2CN(C(=O)OCC(C)C)CCC2C2=C(C(=O)c3ccccc3C2=O)C1C (configuration not stated) | > 10 | > 10 |  | > 10 | > 10 | > 10 | > 10 | > 10 | > 10 | > 10 | > 10 |  | > 10 | > 10 |  | > 10 | > 10 | > 10 | > 10 |
| COC(=O)[C@@H]1OC(C)(c2ccccc2)O[C@H]1C(=O)OC | > 100 | > 100 |  | > 100 | > 100 | > 100 | > 100 | > 100 | > 100 | > 100 | > 100 | > 100 | > 100 | > 100 | > 100 | > 100 | > 100 | > 100 | > 100 |
| COc1ccc(CNC(=O)[C@@H]2CCCN2C(=O)[C@@H]2CCCN2C(=O)[C@H](C(C)C)N(C)C(=O)[C@@H](NC(=O)[C@H](C(C)C)N(Cc2ccccc2)Cc2ccccc2)C(C)C)cc1OC (Bn2Val-V[NMeV]PP-{NH(3,4-diMeO-benzyl)}) | 42.3 | 16.4 | 29.5 | 38.6 | 20.7 | 42.9 | 72.2 |  | 26.5 | 39 | 30.1 | 30.7 | > 100 | 26.7 | 27.6 | > 48.1 | 30.8 | 31.4 | 51.5 |
| COC(=O)[C@H](COC(=O)/C=C/c1ccc(OC(C)=O)c(OC(C)=O)c1)NC(=O)/C=C/c1ccc(OC(C)=O)c(OC(C)=O)c1 | 36.8 | 95.6 | 36.2 | 47.6 | 54 | 42.1 | > 100 | 36.6 | 32.1 | 45.5 | 29.4 | 35.8 | > 100 | 38.9 | 33.5 |  | 31.2 | 54.3 | 36.6 |
| O=[N+]([O-])c1ccc(C(=Nc2ccccc2)SSC(=Nc2ccccc2)c2ccc([N+](=O)[O-])o2)o1 | 7.92 | 3.83 | 2.95 | 3.38 | 4.1 | > 21.9 | > 24 | 3.41 | 4.08 | 6.17 | 3.6 | 4.07 |  | 3.48 | 3.38 | 4.4 | 4.03 | 14.3 | 4.15 |
| CCN(CC)C(=S)SS(=O)(=O)c1ccc(NC(C)=O)cc1 | 36.4 | 31.8 | 31.1 | 62.3 | 70.8 | 58.7 |  | > 100 | 36.5 | 33.4 | > 75.4 | > 100 | > 100 | > 100 | > 100 | > 70.2 | > 100 | > 100 | > 100 |
| NC(=O)OCc1c(-c2ccccc2)nn(-c2ccccc2)c1COC(N)=O | > 100 |  | > 100 | > 100 | > 100 | > 100 |  | > 100 | > 100 | > 100 | > 100 | > 100 |  |  | > 100 | > 100 | > 100 |  | > 100 |
| Cn1c(=O)cc(N2CCCC2)[nH]c1=O | > 100 | > 100 | > 100 | > 100 | > 100 | > 100 | > 100 | > 100 | > 100 | > 100 | > 100 | > 100 | > 100 | > 100 |  | > 100 | > 100 |  | > 100 |
| O=C1C=C2CC[C@H]3[C@@H]4CC[C@H](OC(=O)c5cccc6cc7ccccc7nc56)[C@H]4CC[C@@H]3[C@H]2CC1 | > 100 | 29.7 | > 100 | > 100 | > 100 | > 100 | > 100 |  | > 100 | > 100 | > 100 | > 100 | > 100 | > 100 | > 100 | > 100 | > 100 | > 100 | > 100 |
| CN(C)Cc1cc(/C=C/C(=O)c2ccc(Cl)c(Cl)c2)cc(CN(C)C)c1O | 21.8 |  | 26.1 |  | 28.6 | 25.8 | 32.3 | 19.3 | 21.3 | 23.3 | 27.1 | 32.5 | 91.2 | 30.1 | 23.8 | 23.7 | 28.2 | 36.9 | 26.3 |
| O=C(CC(=O)N1N=C(N(c2ccccc2)c2ccccc2)CC1c1ccccc1)Nc1ccccc1 (configuration not stated) | > 100 |  | > 100 | > 100 | > 100 | > 100 | > 100 | > 100 | > 100 | > 100 | > 100 | > 100 | > 100 | > 100 | > 100 | > 100 | > 100 | > 100 | > 100 |
| O=C(c1ccccc1)C1C[C@H]2CO[C@H](c3ccccc3)N2C1=O (some centres not stated) | > 100 | > 100 | > 100 | > 100 | > 100 | > 100 | > 100 | > 100 | > 100 | > 100 | > 100 | > 100 | > 100 | > 100 | > 100 | > 100 | > 100 |  | > 100 |
| COc1ccc(N=CN(C)C)c(C)c1 | 58 | 15.2 | 19.6 | 7.23 | 44.6 | 9.95 | 23.8 |  | > 100 | 93.3 | 82 | > 100 | > 100 | > 100 | 13.1 | > 100 | 31 | 82.8 |  |
| COc1ccc(-n2sc3ncc([N+](=O)[O-])cc3c2=O)cc1 | > 100 | > 100 | > 100 | > 100 | > 100 | > 100 | > 100 | > 100 | > 100 | > 100 | > 100 | > 100 |  | > 100 | > 100 | > 100 | > 100 | > 100 | > 100 |
